Results published in patent US20240228488A1 (TAKEDA PHARMACEUTICAL COMPANY LIMITED, priority 2021, published 2024).

Assays:
[1] = biological target: human activated kallikrein enzyme (Homo sapiens, UniProt P03952); assay: Plasma kallikrein inhibition, fluorogenic PFR-AMC substrate, 500 pM activated kallikrein format; type: biochemical; conditions: 500 pM activated kallikrein, 300 uM PFR-AMC, 30 min preincubation, 10 min reaction; read-out: Primary Dose Response Assay: Average EC50
Outline: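 500 pM enz + cpd, 30 min RT preinc; start w/ PFR-AMC 300 uM; 10 min RT; Ex380/Em460. Buffer: Tris 20 mM pH 7.5, EDTA 1 mM, NaCl 150 mM, PEG-400 0.1%, Triton 0.1%. EC50.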

plasma kallikrein = biological target: T1, plasma kallikrein (Homo sapiens, UniProt P03952); assay: Neat human plasma assay, FXIIa contact pathway-activated, PFR-AMC substrate; type: biochemical; conditions: citrated human plasma 78% final, 10 nM human FXIIa, 100 μM PFR-AMC; read-out: Human Plasma Assay: IC90
T1 construct: from tissue
T1 sequence (P03952 391-638 limits assumed): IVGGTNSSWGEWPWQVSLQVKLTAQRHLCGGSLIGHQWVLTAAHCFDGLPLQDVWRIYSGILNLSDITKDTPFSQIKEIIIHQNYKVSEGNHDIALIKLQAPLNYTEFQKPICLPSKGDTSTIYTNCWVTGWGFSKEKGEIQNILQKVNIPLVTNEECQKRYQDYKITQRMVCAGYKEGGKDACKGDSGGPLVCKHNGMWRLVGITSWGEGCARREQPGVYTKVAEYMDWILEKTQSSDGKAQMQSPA
T1 sequence (P03952 20-390 partner limits assumed): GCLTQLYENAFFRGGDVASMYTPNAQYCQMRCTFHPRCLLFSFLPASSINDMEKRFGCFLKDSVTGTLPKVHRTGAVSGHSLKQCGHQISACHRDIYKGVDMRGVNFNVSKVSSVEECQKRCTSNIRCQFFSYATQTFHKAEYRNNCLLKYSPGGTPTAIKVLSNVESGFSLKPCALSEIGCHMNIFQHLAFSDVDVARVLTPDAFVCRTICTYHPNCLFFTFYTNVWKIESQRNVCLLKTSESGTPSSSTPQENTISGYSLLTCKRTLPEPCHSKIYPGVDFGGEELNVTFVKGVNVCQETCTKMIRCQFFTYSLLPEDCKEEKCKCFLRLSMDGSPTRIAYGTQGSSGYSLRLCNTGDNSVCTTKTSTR
Outline: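 Citrated human plasma (78% final) with compound, contact-activated by 10 nM human FXIIa in pKal buffer pH 7.5, with 100 μM PFR-AMC. Fluorescence (360/480 nm) followed 5 min at room temperature; rates versus concentration fitted by 4-parameter equation for IC50/IC90.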

Chain of human activated kallikrein enzyme (P03952 391-638 limits assumed): as the sequence (P03952 391-638 limits assumed) above
Chain of human activated kallikrein enzyme (P03952 20-390 partner limits assumed): as the sequence (P03952 20-390 partner limits assumed) above

Row | SMILES | EC50 [1] | IC90 (plasma kallikrein)
1 | Cc1ccnc([C@H]2C[C@@H]2C(=O)Nc2cc(N(C)Cc3cn4cc(C5CC5)cc(N5CC(=O)NC5=O)c4n3)nc(C3CC3)n2)n1 [Example 408, (1S,2S)-N-(2-cyclopropyl-6-(((6-cyclopropyl-8-(2,4-dioxoimidazolidin-1-yl)imidazo[1,2-a]pyridin-2-yl)methyl)(methyl)amino)pyrimidin-4-yl)-2-(4-methylpyrimidin-2-yl)cyclopropane-1-carboxamide] | 1 to 10 nM | 400 to 1500 nM
2 | Cc1ccnc([C@H]2C[C@@H]2C(=O)Nc2cc(NCc3cn4cc(C5CC5)cc(N5CC(=O)N(C)C5=O)c4n3)nc(C3CC3)n2)n1 [Example 410, (1S,2S)-N-(2-cyclopropyl-6-(((6-cyclopropyl-8-(3-methyl-2,4-dioxoimidazolidin-1-yl)imidazo[1,2-a]pyridin-2-yl)methyl)amino)pyrimidin-4-yl)-2-(4-methylpyrimidin-2-yl)cyclopropane-1-carboxamide] | < 1 nM | < 400 nM
3 | COc1cc(N2CC(=O)N(C)C2=O)c2nc([C@@H](C)Nc3cc(NC(=O)[C@H]4C[C@@H]4c4nccc(C)n4)ncn3)cn2c1 [Example 415, (1S,2S)-N-(6-(((R)-1-(6-methoxy-8-(3-methyl-2,4-dioxoimidazolidin-1-yl)imidazo[1,2-a]pyridin-2-yl)ethyl)amino)pyrimidin-4-yl)-2-(4-methylpyrimidin-2-yl)cyclopropane-1-carboxamide] | < 1 nM | < 400 nM
4 | Cc1ccnc([C@H]2C[C@@H]2C(=O)Nc2cc(N[C@H](C)c3cn4cc(C5CC5)cc(N5CCCC5=O)c4n3)ncn2)n1 [Example 418, (1S,2S)-N-(6-(((R)-1-(6-cyclopropyl-8-(2-oxopyrrolidin-1-yl)imidazo[1,2-a]pyridin-2-yl)ethyl)amino)pyrimidin-4-yl)-2-(4-methylpyrimidin-2-yl)cyclopropane-1-carboxamide] | < 1 nM | < 400 nM
5 | Cc1cc(N2CC(=O)N(C)C2=O)c2nc([C@@H](C)Nc3cc(NC(=O)[C@H]4C[C@@H]4c4nccc(C)n4)ncn3)cn2c1 [Example 423, (1S,2S)-N-(6-(((R)-1-(6-methyl-8-(3-methyl-2,4-dioxoimidazolidin-1-yl)imidazo[1,2-a]pyridin-2-yl)ethyl)amino)pyrimidin-4-yl)-2-(4-methylpyrimidin-2-yl)cyclopropane-1-carboxamide] | < 1 nM | < 400 nM
6 | Cc1ccnc([C@H]2C[C@@H]2C(=O)Nc2cc(N[C@H](C)c3cn4cc(C5(F)CC5)cc(N5CC(=O)N(C)C5=O)c4n3)ncn2)n1 [Example 424, (1S,2S)-N-(6-(((R)-1-(6-(1-fluorocyclopropyl)-8-(3-methyl-2,4-dioxoimidazolidin-1-yl)imidazo[1,2-a]pyridin-2-yl)ethyl)amino)pyrimidin-4-yl)-2-(4-methylpyrimidin-2-yl)cyclopropane-1-carboxamide] | < 1 nM | 400 to 1500 nM
7 | Cc1cc(N2CC(=O)N(C)C2=O)c2nc([C@@H](C)Nc3cc(NC(=O)[C@H]4C[C@@H]4c4nccc(C)n4)nc(C)n3)cn2c1 [Example 434, (1S,2S)-N-(2-methyl-6-(((R)-1-(6-methyl-8-(3-methyl-2,4-dioxoimidazolidin-1-yl)imidazo[1,2-a]pyridin-2-yl)ethyl)amino)pyrimidin-4-yl)-2-(4-methylpyrimidin-2-yl)cyclopropane-1-carboxamide] | < 1 nM | < 400 nM
8 | Cc1ccnc([C@H]2C[C@@H]2C(=O)Nc2cc(N[C@H](C)c3cn4cc(C5CC5)cc(N5CC6(COC6)OC5=O)c4n3)nc(C)n2)n1 [Example 437, (1S,2S)-N-(6-(((R)-1-(6-cyclopropyl-8-(6-oxo-2,5-dioxa-7-azaspiro[3.4]octan-7-yl)imidazo[1,2-a]pyridin-2-yl)ethyl)amino)-2-methylpyrimidin-4-yl)-2-(4-methylpyrimidin-2-yl)cyclopropane-1-carboxamide] | < 1 nM | < 400 nM
